Results taken from patent US20250340556A1, “PYRIMIDOPYRIMIDONE COMPOUNDS AND METHODS OF USE THEREOF” (Soltego, Inc., priority 2022, published 2025).
Read-outs that look alike come from different tables or passages of the source.

Tests used:
B16 4A5 cells = assay: B16 4A5 cell viability, MTS assay; format: cell-based, mouse; conditions: 72 h
Experimental: B16 4A5 cells were seeded in 24-well plates at 20,000 cells/well, 24 h before the beginning of the treatment with test compounds at 5 concentrations, in triplicates (n=3). […] Additionally, DMSO at 0.1%, used for solubilization of the test compounds, was tested in parallel. The treatments were performed in culture medium containing only 1% of FBS. […] The effects of the compounds on B16 4A5 viability was assessed. To this purpose, cells were incubated during 72 h with 5 concentrations of the compounds, were left untreated, treated with SDS or with DMSO 0.1%.

SIK2 (h) = SIK2 (h) (Homo sapiens (Human), UniProt Q9H0K1); assay: SIK2 kinase activity, Eurofins KinaseProfiler ([γ-33P]-ATP filter assay); format: biochemical
Experimental: (§1) SIK1, 2 and 3 kinase activity was assessed using a Eurofins Cerep S.A. (‘Eurofins’) KinaseProfiler. All compounds were prepared to 50× final assay concentration in 100% DMSO. This working stock of the compound was added to the assay well as the first component in the reaction, followed by the remaining components as detailed in the general assay protocols below. In the standard KinaseProfiler service, there is no pre-incubation step between the compound and the kinase prior to initiation of the reaction. The positive control well contains all components of the reaction, except the compound of interest; however, DMSO (at a final concentration of 2%) is included in these wells to control for solvent effects. The blank wells contain all components of the reaction, with a reference inhibitor replacing the compound of interest. This abolishes kinase activity and establishes the base-line (0% kinase activity remaining).
(§2) SIK2 (h) was incubated with 8 mM MOPS pH 7.0, 0.2 mM EDTA, 100 μM […], 10 mM Magnesium acetate and [γ-33P-ATP](specific activity and concentration as required). The reaction was initiated by the addition of the Mg/ATP mix. After incubation for 40 minutes at room temperature, the reaction was stopped by the addition of phosphoric acid to a concentration of 0.5%, 10 μL of the reaction was then spotted onto a P30 filtermat and washed four times for 4 minutes in 0.425% phosphoric acid and once in methanol prior to drying and scintillation counting.

SIK (h) / SIK1 = SIK (h) / SIK1 (Homo sapiens (Human), UniProt P57059); assay: SIK1 kinase activity, Eurofins KinaseProfiler ([γ-33P]-ATP filter assay); format: biochemical
Experimental: as §1
as §2, with “SIK” for “SIK2”, “[γ-33P]-ATP (specific” for “[γ-33P-ATP](specific”

[1] = ester bond
SIK1 = SIK1 (Homo sapiens (Human), UniProt P57059); assay: cell-based
Sequence of SIK1 (P57059 whole entry): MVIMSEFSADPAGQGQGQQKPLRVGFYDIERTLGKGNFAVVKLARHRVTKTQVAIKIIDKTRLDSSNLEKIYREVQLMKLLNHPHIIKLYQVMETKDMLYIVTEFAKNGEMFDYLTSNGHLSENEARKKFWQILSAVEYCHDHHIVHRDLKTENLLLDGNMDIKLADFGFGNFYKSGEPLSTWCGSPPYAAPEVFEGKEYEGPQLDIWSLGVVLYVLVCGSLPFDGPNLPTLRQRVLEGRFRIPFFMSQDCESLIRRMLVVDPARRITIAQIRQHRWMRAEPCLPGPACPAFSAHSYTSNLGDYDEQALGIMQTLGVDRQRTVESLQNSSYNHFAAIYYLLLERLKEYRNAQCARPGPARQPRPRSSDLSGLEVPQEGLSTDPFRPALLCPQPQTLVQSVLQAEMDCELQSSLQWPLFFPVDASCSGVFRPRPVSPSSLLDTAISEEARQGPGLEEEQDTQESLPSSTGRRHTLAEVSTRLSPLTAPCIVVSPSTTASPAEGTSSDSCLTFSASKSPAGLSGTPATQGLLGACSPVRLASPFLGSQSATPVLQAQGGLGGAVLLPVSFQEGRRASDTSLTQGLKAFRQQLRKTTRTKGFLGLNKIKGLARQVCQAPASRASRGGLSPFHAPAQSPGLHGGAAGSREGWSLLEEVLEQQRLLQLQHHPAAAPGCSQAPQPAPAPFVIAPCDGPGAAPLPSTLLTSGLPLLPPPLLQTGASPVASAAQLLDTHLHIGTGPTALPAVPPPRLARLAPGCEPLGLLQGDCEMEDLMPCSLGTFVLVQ

SIK3 (h) = SIK3 (h) (Homo sapiens (Human), UniProt Q9Y2K2); assay: SIK3 kinase activity, Eurofins KinaseProfiler ([γ-33P]-ATP filter assay); format: biochemical
Experimental: as §1
as §2, with “SIK3 (h) was” for “SIK2 (h) was”, “the reaction is stopped by” for “the reaction was stopped by”, “0.5%, […] of the” for “0.5%, 10 μL of the”

[2] = system: living human skin explants; assay: Cell viability of living human skin explants, Masson's trichrome staining (Example 8); format: cell-based; conditions: 1% topical in vehicle E
Experimental: All the tested products were diluted in the vehicle noted as E (Ethanol 65%, Propylene glycol 25%, Transcutol 10%). The diluted solutions were stored at 4° C. within the study period. 36 human skin explants of an average diameter of 11 mm (+1 mm) were prepared on an abdoplasty coming from a person (reference: P2462-AB53) with a III phototype. The explants were kept in survival in BEM culture medium (BIO-EC's Explants Medium) at 37° C. in a humid, 5%-CO2 atmosphere. Study is performed on human skin tissue, obtained from surgical residues in full respect with the Declaration of Helsinki and the article L. 1243-4 of the French Public Health Code.
The excipient E and the tested products were applied topically at a rate of 2 μL per 1 cm^2 explant (˜2 mg/cm^2) and spread and gently rubbed for 10 seconds using a small spatula on day 0 (DO), D3, D5, D7 and D10. […] The culture medium was half renewed (1 ml per well) on D3, D5, D7 and D10. On D0, D3, D4, D5, D6, D7 and D10, the culture media of the irradiated explants (UV) were replaced by HBSS (Hank's Balanced Saline Solution; 1 ml per explant). Then, the explants of the “UV” batch were irradiated using a UV simulator Vibert Lourmat RMX 3W with a dose of 2.25 J/cm^2 of UVA (with 6-8% of UVB) corresponding to 0.5 MED (minimal erythemal dose) on a skin with a III phototype. At the end of the UV irradiation, the explants form the batch TUV were put back in 2 mL of BEM medium. On D0, the 3 explants from the batch TO were collected and cut in two parts. Half was fixed in buffered formalin solution and half was frozen at −80° C. On D10, 3 explants from the concerned batches were collected and treated in the same way than in DO. According to the dispositions mentioned in the study plan, the days of treatments, irradiations and sampling were adjusted to the schedule of working days. After fixation for 24 hours in buffered formalin, the samples were dehydrated and impregnated in paraffin using a Leica PEARL dehydration automat. The samples were embedded using a Leica EG 1160 embedding station. 5-μm-thick sections were made using a Leica RM 2125 Minot-type microtome, and the sections were mounted on Superfrost® histological glass slides. The frozen samples were cut into 7-μm-thick sections using a Leica CM 3050 cryostat. Sections were then mounted on Superfrost®, plus silanized glass slides. The microscopical observations were realized using a Leica DMLB or Olympus BX43 microscope. Pictures were digitized with a numeric DP72 Olympus camera with CellSens storing software.
The cell viability of the epidermal and dermal structures was assessed by microscopical observation of formalin-fixed paraffin-embedded (FFPE) skin sections after Masson's trichrome staining, Goldner variant.

[3] = Table 6, macrocycles, read-out: IC50 nM SIK2
[4] = Table 5, macrocycle precursors, read-out: IC50 nM SIK2

In the case of `CCCCCCCCCCCCOS(=O)(=O)[O-].[Na+]` [SDS, reference compound], the viability of cells (B16 4A5 cells; SDS 0.05%, compared to untreated cells) is reported as “strongly and significantly diminished”.
In the case of `Cc1cccc(C)c1N1Cc2cnc3nc2N(C/C=C\CC(=O)OCc2cc(ccc2N2CCN(C)CC2)N3)C1=O` [SLT-062], the IC50 (SIK2 (h)) is reported as 0.8 nM.
For `Cc1cccc(C)c1N1Cc2cnc3nc2N(CCCCOC(=O)Cc2cc(ccc2N2CCN(C)CC2)N3)C1=O` [SLT-059], the IC50 (SIK (h) / SIK1; Table 6, macrocycles) was 286 nM, the IC50 (SIK2 (h)) was greater than 500 nM and the IC50 (SIK2 (h); [3]) was 250 nM. The ring closure, isolated yield ([1]; from Cc1cccc(C)c1N1Cc2cnc(Nc3ccc(N4CCN(C)CC4)c(CC(=O)O)c3)nc2N(CCCCO)C1=O, 15-membered ring, 2,4,6-trichlorobenzoyl chloride/TEA, DMAP, toluene/DMF, 5.0 mM, 110.0 °C, 16.0 h) was 13%.
Compound `Cc1cccc(C)c1N1Cc2cnc3nc2N(CCCCCOC(=O)c2cc(ccc2N2CCN(C)CC2)N3)C1=O` [SLT-038] has an EC50 (SIK1) of 4.37 nM, an IC50 (SIK2 (h); [3]) of 1 nM and a ring closure, isolated yield ([1]; from Cc1cccc(C)c1N1Cc2cnc(Nc3ccc(N4CCN(C)CC4)c(C(=O)O)c3)nc2N(CCCCCO)C1=O, 15-membered ring, 2,4,6-trichlorobenzoyl chloride/TEA, DMAP, toluene/DMF, 5.0 mM, 110.0 °C, 16.0 h) of 6%.
`COC(=O)CCCN1C(=O)N(c2c(C)cccc2C)Cc2cnc(Nc3ccc(N4CCN(C)CC4)c(CO)c3)nc21` [SLT-019] gave an IC50 (SIK (h) / SIK1; Table 5, macrocycle precursors) of 2 nM, an IC50 (SIK2 (h); [4]) of 3 nM and an IC50 (SIK3 (h); Table 5, macrocycle precursors) of 8 nM.
In the case of `Cc1cccc(C)c1N1Cc2cnc3nc2N(CCCCOC(=O)C(C)c2cc(ccc2N2CCN(C)CC2)N3)C1=O` (centres unmarked) [SLT-070], the IC50 (SIK2 (h); [3]) is reported as 2 nM.
`COc1cc(Br)c2cc1Nc1ncc3c(n1)N(CCCC(=O)OC2)C(=O)N(c1c(C)cccc1C)C3` [SLT-058] showed an IC50 (SIK (h) / SIK1; Table 6, macrocycles) of 26 nM, an IC50 (SIK2 (h); [3]) of 201 nM and an IC50 (SIK3 (h); Table 6, macrocycles) of 339 nM. The ring closure, isolated yield ([1]; from COc1cc(Br)c(CO)cc1Nc1ncc2c(n1)N(CCCC(=O)O)C(=O)N(c1c(C)cccc1C)C2, 14-membered ring, DCC/DMAP/3A MS, DCM/DMF, 4.96 mM, 25.0 °C, 16.0 h) was 20%.
With `Cc1cccc(C)c1N1Cc2cnc3nc2N(C/C=C/COC(=O)Cc2cc(ccc2N2CCN(C)CC2)N3)C1=O` [SLT-068] the IC50 (SIK2 (h); [3]) was 17 nM.
For `Cc1cccc(C)c1N1Cc2cnc(Nc3ccc(N4CCN(C)CC4)c(CO)c3)nc2N(CCCCC(=O)O)C1=O` [SLT-027], the EC50 (SIK1) was 408 nM, the IC50 (SIK (h) / SIK1; Table 5, macrocycle precursors) was 2 nM and the IC50 (SIK2 (h); [4]) was 5 nM. For the same compound, the IC50 (SIK3 (h); Table 5, macrocycle precursors) was 21 nM.
With `Cc1cccc(C)c1N1Cc2cnc3nc2N(C/C=C/CCOC(=O)c2cc(ccc2N2CCN(C)CC2)N3)C1=O` [SLT-079] the IC50 (SIK2 (h); [3]) was 1 nM.
In the case of `Cc1cccc(C)c1N1Cc2cnc3nc2N(CCCCC(=O)OCc2cc(ccc2N2CCN(C)CC2)N3)C1=O` [SLT-033], the EC50 (SIK1) is reported as 6.08 nM, the IC50 (SIK2 (h); [3]) is reported as 0.8 nM and the ring closure, isolated yield ([1]; from Cc1cccc(C)c1N1Cc2cnc(Nc3ccc(N4CCN(C)CC4)c(CO)c3)nc2N(CCCCC(=O)O)C1=O, 15-membered ring, DCC/DMAP/3A MS, DCM/DMF, 7.69 mM, 25.0 °C) is reported as 14%.
In the case of `Cc1cccc(C)c1N1Cc2cnc(Nc3ccc(N4CCN(C)CC4)c(CO)c3)nc2N(CCC(=O)O)C1=O` [SLT-020], the IC50 (SIK (h) / SIK1; Table 5, macrocycle precursors) is reported as 5 nM, the IC50 (SIK2 (h); [4]) is reported as 10 nM and the IC50 (SIK3 (h); Table 5, macrocycle precursors) is reported as 43 nM.
Compound `Cc1cccc(C)c1N1Cc2cnc3nc2N(C/C=C\C(=O)OCc2cc(ccc2N2CCN(C)CC2)N3)C1=O` [SLT-073] has an IC50 (SIK2 (h)) of 0.7 nM.
For `Cc1cccc(C)c1N1Cc2cnc3nc2N(CCCOC(=O)C(C)c2cc(ccc2N2CCN(C)CC2)N3)C1=O` (centres unmarked) [SLT-071], the IC50 (SIK2 (h); [3]) was 3 nM.
In the case of `COc1cc(N2CCN(C)CC2)c2cc1Nc1ncc3c(n1)N(CCCC(=O)OC2)C(=O)N(c1c(C)cccc1C)C3`, the ring closure, isolated yield ([1]; from COc1cc(N2CCN(C)CC2)c(CO)cc1Nc1ncc2c(n1)N(CCCC(=O)O)C(=O)N(c1c(C)cccc1C)C2, 14-membered ring, DCC/DMAP/3A MS, DCM/DMF, 6.69 mM, 25.0 °C, 16.0 h) is reported as 6%.
`COc1cc(F)c2cc1Nc1ncc3c(n1)N(CCCC(=O)OC2)C(=O)N(c1c(C)cccc1C)C3` showed a ring closure, isolated yield ([1]; from COc1cc(F)c(CO)cc1Nc1ncc2c(n1)N(CCCC(=O)O)C(=O)N(c1c(C)cccc1C)C2, 14-membered ring, DCC/DMAP/3A MS, DCM/DMF, 6.89 mM, 25.0 °C, 16.0 h) of 57%.
In the case of `Cc1cccc(C)c1N1Cc2cnc3nc2N(CCCOC(=O)c2cc(ccc2N2CCN(C)CC2)N3)C1=O` [SLT-041], the EC50 (SIK1) is reported as 10.5 nM and the ring closure, isolated yield ([1]; from Cc1cccc(C)c1N1Cc2cnc(Nc3ccc(N4CCN(C)CC4)c(C(=O)O)c3)nc2N(CCCO)C1=O, 13-membered ring, EDC.HCl/HOBt/DMAP/3A MS, DCM, 7.99 mM, 50.0 °C, 16.0 h) is reported as 30%.
Work on `Cc1cccc(C)c1N1Cc2cnc3nc2N(C/C=C/CC(=O)OCc2cc(ccc2N2CCN(C)CC2)N3)C1=O` [SLT-061] yielded an IC50 (SIK2 (h); [3]) of 2 nM.
In the case of `Cc1cccc(C)c1N1Cc2cnc3nc2N(CCC(=O)OCc2cc(ccc2N2CCN(C)CC2)N3)C1=O` [SLT-023], the EC50 (SIK1) is reported as 86.6 nM, the cell viability (B16 4A5 cells; 0.7 μg/mL, compared with DMSO 0.1% control) is reported as “slightly decreased” and the viability of cells (B16 4A5 cells; 5 μg/mL, compared with DMSO 0.1% control) is reported as “slightly diminished”. The IC50 (SIK (h) / SIK1; Table 6, macrocycles) was 3 nM, the “cell viability of epidermal and dermal structures” value [2] was “very slightly decreased” and the IC50 (SIK2 (h); [3]) was 3 nM. For the same compound, the IC50 (SIK3 (h); Table 6, macrocycles) was 18 nM and the ring closure, isolated yield ([1]; from Cc1cccc(C)c1N1Cc2cnc(Nc3ccc(N4CCN(C)CC4)c(CO)c3)nc2N(CCC(=O)O)C1=O, 13-membered ring, EDC.HCl/HOBt/DMAP/3A MS, DCM, 8.04 mM, 25.0 °C, 16.0 h) was 33%.
With `Cc1cccc(C)c1N1Cc2cnc(Nc3ccc(N4CCN(C)CC4)c(CO)c3)nc2N(CCCC(=O)O)C1=O` [SLT-025] the IC50 (SIK (h) / SIK1; Table 5, macrocycle precursors) was 3 nM, the IC50 (SIK2 (h); [4]) was 6 nM and the IC50 (SIK3 (h); Table 5, macrocycle precursors) was 21 nM.
